Experimental data reported in patent publication US10160763B2, “WDR5 inhibitors and modulators” (Vanderbilt University, priority 2016, dated 2018).

Each compound was assayed against WDR5 (Δ23, residues 24-334) (Homo sapiens, UniProt P61964) (assay: biochemical). Conditions: Kd (M), FPA-based binding affinity at the WDR5 WIN site; IC50 converted to Kd by modified Cheng-Prusoff equation; average of two experiments.

| Structure (SMILES) | Kd [M] |
| --- | --- |
| CC(C)C(NC(=O)Cc1ccc(F)c(Cl)c1)c1cccc(-c2cn3c(n2)CCC3)c1 (stereo not shown) [B221] | 1.17e-07 |
| CC(NC(=O)Cc1ccc(F)c(Cl)c1)c1cc(-c2cn3c(n2)CCC3)ccc1F (stereo not shown) [B222] | 9.9e-08 |
| COc1cc(C(=O)NCc2cc(-c3cn4c(n3)CCC4)cnc2N2CCOCC2)ccc1C [B223, N-((5-(6,7-dihydro-5H-pyrrolo[1,2-a]imidazol-2-yl)-2-morpholinopyridin-3-yl)methyl)-3-methoxy-4-methylbenzamide] | 9.1e-08 |
| O=C(Cc1ccc(F)c(Cl)c1)NCc1cc(-c2cn3c(n2)CCC3)cnc1OC1CCC1 [B224] | 6.1e-08 |
